57 molecules from PMC12040169 (PLOS Biology, 2025) can be followed below.

The data set in a line: in vitro. The conditions noted are these: human, hela cells, % viability.

Regarding `O=C(O)CCn1c2ccccc2c2ccccc21` [CBK000208], the viability (usually a read-out of living cells in per cent, often relative to untreated cells) at 28.5 h, 10 µM was determined as 87.7%.
For `CCC(C(=O)c1c[nH]c2ccc(OC)cc12)N(C)C` (stereo not drawn) [CBK022923], the viability at 28.5 h, 10 µM (bulk resorufin, single well) came out at 96%.
Turning to `CCCS(=O)(=O)n1c(=O)n(CC(=O)c2ccc(N(CC)CC)cc2)c2ccccc21` [CBK106504], the viability at 28.5 h, 10 µM was found to be 105%.
Take `O=C(CCS(=O)(=O)c1ccccc1)Nc1c(F)cc(F)cc1OC1CCNCC1` [CBK050226T]: the viability at 28.5 h, 10 µM was found to be 87.4%.
The same measure, in the same setting: then `O=C(COc1ccc2c3c(c(=O)oc2c1)CCC3)Nc1ccc(S(=O)(=O)N2CCOCC2)cc1` [CBK265640], with 82.4%; and `O=C(NCCCc1ccccn1)c1cc(-c2cccs2)no1` [CBK282652], with 63.9%.
The same measure, in the same setting: as for `Cc1ccc(N(CC(=O)Nc2ccc(C)cc2C)S(=O)(=O)N2CCCC2)cc1` [CBK265998], the figure is 110%; as for `CCc1cc(C(=O)NC(CCn2ccnc2)c2ccccc2)cc(=O)[nH]1` (stereo not drawn) [CBK306679], 114%.
On the same count and under the same terms, then `CCCC(=O)CCOC(=O)C1=C(C)OC2C1Nc1cc(F)c(F)cc1N2CC` (stereo not drawn) [CBK022099], with 93.4%.
Take `COc1cc(C(=O)N2CCN(c3cc(C(C)C)ccc(CO)c3=O)CC2)cc(OC)c1OC` [CBK007673]: the viability at 28.5 h, 10 µM turned out to be 91%.
Turning to `Cc1ccc(N2CCN(C3=NC(=O)/C(=C\c4ccc(O)c([N+](=O)[O-])c4)S3)CC2)cc1` [CBK264347], the viability at 28.5 h, 10 µM stood at 92.9%.
Still for that read-out and setting: as for `Cc1nn(CC(=O)N2CCN(Cc3ccccn3)CC2)c(C)c1Cl` [CBK305978], the figure is 93.8%; as for `COc1ccc(C(=O)c2c[nH]c3ccccc23)cc1` [CBK111451], 88.9%.
In the case of `O=C(c1cccs1)N1CCOC(Cn2ccnc2)C1` (stereo not drawn) [CBK282256], the viability at 28.5 h, 10 µM worked out at 103%.
Still for that read-out and setting: as for `CC(C)(c1ccc(Oc2ccc3c(c2)C(=O)N(c2nccs2)C3=O)cc1)c1ccc(Oc2ccc3c(c2)C(=O)N(c2nccs2)C3=O)cc1` [CBK262258], the figure is 103%; as for `O=P(O)(CN1CCOCC1)CN1CCOCC1` [CBK260914], 97.6%; as for `O=C(Nc1ccc2c(c1)OCCO2)N1CCCCC1CO` (stereo not drawn) [CBK156178], 105%.
The same measure, in the same setting: as for `Cc1nc(SCC(N)=O)nc(C)c1CCC(=O)NCc1ccc(F)cc1` [CBK295201], the figure is 88.5%.
On the same count and under the same terms, then `O=C(Cn1cnc(-c2noc(-c3cccnc3)n2)c1)Nc1ccc(Cl)cc1` [CBK287822], with 96.2%; and `COc1ccc(C2C(C(=O)c3ccccc3)=C(O)C(=O)N2CCN(C)C)cc1OC` (stereo not drawn) [CBK263352], with 119%; and `CN1CCN(c2nc(-c3ccccc3CO)cn3ccnc23)CC1` [CBK066347], with 87.1%.
As to `CC(C)NC(=O)C1CCCN(c2nc3ccccc3n2C)C1` (stereo not drawn) [CBK282373], the viability at 28.5 h, 10 µM was 109%.
Same read-out and setting: as for `CC(=O)Nc1cccc(-c2nc(-c3ccc(C#N)cc3)cnc2N)c1` [CBK113659], the figure is 100%; as for `CCOc1ccc(OCC)c(S(=O)(=O)n2nc(C)cc2C)c1` [CBK264024], 94.6%.
Take `c1cncc(CNc2nc(-c3cccs3)cn3ccnc23)c1` [CBK066687]: the viability at 28.5 h, 10 µM is 104%.
Same read-out and setting: as for `CS(=O)(=O)c1ccc2nc(Nc3nc4c(F)cccc4s3)sc2c1` [CBK287478], the figure is 101%.
Still for that read-out and setting: then `CCSc1nnc(-c2cccc(C)c2)n1CC1CCCCC1` [CBK085419], with 96.3%; and `O=C(NCCOc1ccccc1F)C1CC(=O)N(Cc2ccccn2)C1` (stereo not drawn) [CBK304632], with 104%; and `O=C(N/N=C/c1cccc(OC(=O)c2cccc(Br)c2)c1)c1ccncc1` [CBK262249], with 112%.
On the same count and under the same terms, as for `CN(c1cccc(C#N)c1)C1CCN(c2ncnc3c2cnn3C)C1` (stereo not drawn) [CBK304720], the figure is 87.4%; as for `COCC(=O)N[C@H]1C[C@H]2C(=O)Nc3ccc(-c4ccsc4)cc3C(=O)N2C1` [CBK289360], 96.6%.
As to `C#CCN(C1CCc2ccccc21)S(=O)(=O)c1cc(C(=O)NC)n(C)c1` (stereo not drawn) [CBK306235], the viability at 28.5 h, 10 µM was 91.8%.
As for `COc1ccc(-c2cc(C(=O)Nc3c(C)cccc3C)n[nH]2)c(OC)c1` [CBK288114], the viability at 28.5 h, 10 µM came to 107%.
For `Cc1ccc(OCC(=O)NC(C)c2ccc(F)cc2F)c([N+](=O)[O-])n1` (stereo not drawn) [CBK295662], the viability at 28.5 h, 10 µM came to 92.7%.
On the same count and under the same terms, as for `O=C(NC(c1ccccn1)c1cccs1)C1CCN(S(=O)(=O)c2ccc(C(F)(F)F)cc2)CC1` (stereo not drawn) [CBK060153], the figure is 92.4%.
On the same count and under the same terms, then `O=C(O)CCc1ccc(-c2ccc(Cl)cc2)[nH]1` [CBK264781], with 100%.
On to `Cc1c(NC(=O)C2CCN(c3ccccc3Cl)C2)nnn1C` (stereo not drawn) [CBK306263], for which the viability at 28.5 h, 10 µM is 90.7%.
The same measure, in the same setting: as for `COc1cccc2cc(C(=O)NCCN3CCOCC3)oc12` [CBK149807], the figure is 101%; as for `O=C(c1ccc2[nH]ccc2c1)N1CCCC1` [CBK149074], 106%.
Same read-out and setting: then `Cc1cc(Cl)cc(Cl)c1S(=O)(=O)Nc1nc2c(s1)C(=O)CC(C)(C)C2` [CBK200034], with 104%; and `O=C(Oc1c(Cl)cc(Cl)c2cccnc12)c1cc(S(=O)(=O)N2CCCCC2)ccc1Cl` [CBK264518], with 100%; and `Oc1ccccc1Sc1cnccn1` [CBK085840], with 104%.
On the same count and under the same terms, then `O=C1CC(Sc2ccccc2)C(=O)N1c1ccc(Cc2ccc(N3C(=O)CC(Sc4ccccc4)C3=O)cc2)cc1` (stereo not drawn) [CBK263797], with 110%.
In the case of `Cc1cc(=O)nc(SC(C)C(=O)O)[nH]1` (stereo not drawn) [CBK264630], the viability at 28.5 h, 10 µM was 95.3%.
With `CS(=O)(=O)NCC1CCCCN1Cc1ccc(-n2cccn2)cc1` (stereo not drawn) [CBK305587], the viability at 28.5 h, 10 µM came out at 91.9%.
Still for that read-out and setting: as for `CN1C=NC2C1C(=O)N(CCn1c(=O)c3c(ncn3C)n(C)c1=O)C(=O)N2C` (stereo not drawn) [CBK268678], the figure is 101%; as for `COc1ccc2c(c1)c(C(=O)N1CC(C)(C)C(C)(O)C1)c(C)n2C` (stereo not drawn) [CBK306896], 77.2%; as for `Cc1nc2ncccn2c1-c1csc(Nc2ccc(C(=O)O)cc2)n1` [CBK263284], 125%.
Still for that read-out and setting: then `COCc1cccc(Nc2ncnc3c2cnn3CCC#N)c1` [CBK305983], with 83.2%; and `c1ccc(Nc2nc(-c3ccco3)cn3ccnc23)cc1` [CBK037947], with 86.9%; and `CCc1c(C)sc(NC(=O)C2CCC2)c1C(=O)NCc1cccnc1` [CBK307414], with 115%.
Regarding `Oc1ccc(Br)cc1C(c1c(O)nc(S)nc1O)c1c(O)nc(S)nc1O` [CBK265367], under “bulk resorufin, single well”, the viability at 28.5 h, 10 µM was found to be 103%.
For the molecule `CCCC(C(=O)NC(C)(C)CN1CCCCC1)n1nc(C)cc1C` (stereo not drawn) [CBK282061], the viability at 28.5 h, 10 µM was 94.8%.
Still for that read-out and setting: then `O=c1[nH]c(=O)c2cc(S(=O)(=O)NC3(c4ccccc4)CCCC3)ccc2[nH]1` [CBK286378], with 110%; and `O=C(CSc1ncn[nH]1)Nc1ncccn1` [CBK058488], with 105%; and `COc1ccc(Cl)cc1S(=O)(=O)N1CCC(C(=O)NCCCO)CC1` [CBK269835], with 99%.
Turning to `O=C(c1cc2ncc(CCO)cn2n1)N1CCC(c2ccccc2Cl)C1` (stereo not drawn) [CBK307266], the viability at 28.5 h, 10 µM was determined as 105%.
